From patent US9328092B2, “Acrylamide compounds as histamine H3 receptor ligands” (Suven Life Sciences Limited, priority 2012, dated 2016)
Structures can show the parent of a compound that is named as a salt. Blank lines part the entries; values can stand above or below the molecule they belong to.

Columns and labels:
[1] = biological target: Human or Rat Histamine H3 Receptor (UniProt Q9Y5N1); test: Binding assay for human or rat histamine H3 receptor ([3H] R-α-methylhistamine displacement); settings: [3H] R-α-methylhistamine 3.0 nM, rat brain frontal cortex or recombinant human receptor in CHO cells (source for table not stated)
Protocol: Binding and Functional Assays for Human or Rat Histamine H3 Receptor
Compounds can be evaluated according to the following procedures.
• Receptor source: Rat brain frontal cortex or recombinant human cDNA expressed in CHO cells • Radioligand: [^3H] R-α-methylhistamine • Final ligand concentration—[3.0 nM] • Non-specific determinant: R-α-methylhistamine (100 μM) • Reference compound: R-α-methylhistamine • Positive control: R-α-methylhistamine Incubation Conditions:
Increasing concentrations of test compounds or standard were incubated with membrane receptors and radioligand in 5 mM MgCl2 and 50 mM TRIS-HCl (pH 7.4) for 60 minutes at room temperature. The reaction was terminated by rapid vacuum filtration onto the glass fiber filters. Radioactivity trapped onto the filters was determined and compared to the control values in order to ascertain any interactions of the test compound(s) with either cloned human or rat receptor binding site.

[2] = Rodent brain penetration study; type: in vivo, Male Wistar rats; settings: 3 mg/kg, Wister rats/Male, Per-oral; for Kp at 1 h: male, Wistar, rat, brain homogenate / whole blood, po, 1 h post dose, read-out: Brain Penetration @ 1 h post dose (Cbrain/Cblood)
Protocol: Male Wistar rats (230-280 grams) were used as experimental animals. Three animals were housed in each cage. Animals were given water and food ad libitum throughout the experiment and maintained on a 12 hours light/dark cycle. Brain penetration was determined in discrete manner in rats. One day prior to dosing day, male wistar rats (225-250 grams) were acclimatized. After acclimatization, the rats were grouped according to the weight in each group, 3 animals were kept in individual cage and allowed free access to food and water. At each time point (05, 1, and 2 hrs) n=3 animals were used. The compounds of formula (I) were dissolved in water and administered orally at (free base) 3 mg/kg. Blood samples were removed via, cardiac puncture by using light ether anesthesia the animals were sacrificed to collect brain tissue. Brain samples were homogenized and stored frozen at −20° C. until analysis. The concentrations of the compounds of formula (I) in blood and brain were determined using LC-MS/MS method. The compounds of formula (I) were quantified in blood and brain homogenate by validated LC-MS/MS method using acetonitrile precipitation technique. The compounds of formula (I) were quantified in the calibration range of 1-1000 ng/mL in blood and brain homogenate. Study samples were analyzed using calibration samples in the batch and quality control samples spread across the batch. Extents of brain to blood ratios were calculated (Cbrain/Cblood).

[3] = Rodent pharmacokinetic study; type: in vivo; settings: rat, whole blood, Wistar rats/Male; for AUC(0-t) / Cmax / Tmax / half-life: blood; for bioavailability: 3 mg/kg Per-Oral vs 1 mg/kg Intravenous
Protocol: Male Wistar rats (230-280 grams) were used as experimental animals. Three to five animals were housed in each cage. One day prior to dosing day, male wistar rats (225-250 grams) were anesthetized with isoflurane for surgical placement of jugular vein catheter. Animals were kept fasted over night and maintained on a 12 hours light/dark cycle. Three rats were dosed with compounds of formula (I) orally (3 mg/Kg) and intravenously (1 mg/kg) in two separate set of animals (n=3 rats/group). At each time point, blood was collected by jugular vein. Blood was stored frozen at […] until analysis. The concentrations of the compounds of formula (I) in blood were determined using LC-MS/MS method. Schedule time points: Pre dose 0.08 (only for i.v.) 0.25, 0.5, 1, 2, 4, 6, 8, and 24 hours after dosing (n=3). The compounds of formula (I) were quantified in blood by validated LC-MS/MS method using acetonitrile precipitation technique. The compounds of formula (I) were quantified in the calibration range of 1-1000 ng/mL in blood. Study samples were analyzed using calibration samples in the batch and quality control samples spread across the batch. Pharmacokinetic parameters Cmax, Tmax, AUCt, T1/2 and Bioavailability were calculated by non-compartmental model using software Pheonix WinNonlin version 6.0.1.

[4] = system: Male Wister rats; test: Object recognition task model; type: in vivo; settings: p.o.; for Exploration time mean ± S.E.M, Familiar object / Exploration time mean ± S.E.M, Novel object: choice trial T2
Protocol: The cognition enhancing properties of compounds of this invention were estimated using a model of animal cognition: the object recognition task model.
Male Wister rats (230-280 grams) were used as experimental animals. Four animals were housed in each cage. Animals were kept on 20% food deprivation before one day and given water ad libitum throughout the experiment and maintained on a 12 hours light/dark cycle. Also the rats were habituated to individual arenas for 1 hour in the absence of any objects.
One group of 12 rats received vehicle (1 mL/Kg) orally and another set of animals received compound of the formula (I) either orally or i.p., before one hour of the familiar (T1) and choice trial (T2).
The experiment was carried out in a 50×50×50 cm open field made up of acrylic. In the familiarization phase, (T1), the rats were placed individually in the open field for 3 minutes, in which two identical objects (plastic bottles, 12.5 cm height×5.5 cm diameter) covered in yellow masking tape alone (a1 and a2) were positioned in two adjacent corners, 10 cm. from the walls. After 24 hours of the (T1) trial for long-term memory test, the same rats were placed in the same arena as they were placed in T1 trial. Choice phase (T2) rats were allowed to explore the open field for 3 minutes in presence of one familiar object (a3) and one novel object (b) (Amber color glass bottle, 12 cm high and 5 cm in diameter). Familiar objects presented similar textures, colors and sizes. During the T1 and T2 trial, explorations of each object (defined as sniffing, licking, chewing or having moving vibrissae whilst directing the nose towards the object at a distance of less than 1 cm) were recorded separately by stopwatch. Sitting on an object was not regarded as exploratory activity, however, it was rarely observed.
T1 is the total time spent exploring the familiar objects (a1+a2).
T2 is the total time spent exploring the familiar object and novel object (a3+b).
The object recognition test was performed as described by Ennaceur, A., Delacour, J., 1988, A new one-trial test for neurobiological studies of memory in rats—Behavioural data, Behav. Brain Res., 31, 47-59.

Structure (SMILES): O=C(C=Cc1ccc(OC2CCN(C3CCC3)CC2)cc1)N1CCCCC1 [Example 2, 3-[4-(1-Cyclobutylpiperidin-4-yloxy)phenyl]-1-(piperidin-1-yl)prop-2-ene-1-one hydrochloride salt]
Ki [1]: 1.82 nM

Structure (SMILES): CC(C)N1CCC(Oc2ccc(C=CC(=O)N3CCOCC3)c(F)c2)CC1 [Example 6, 3-[2-Fluoro-4-(1-isopropylpiperidin-4-yloxy)phenyl]-1-(morpholin-4-yl)prop-2-ene-1-one L(+)-Tartarate salt]
Ki [1]: 17.5 nM

Structure (SMILES): CC(C)N1CCC(Oc2ccc(C=CC(=O)N3CCOCC3)cc2Br)CC1 [Example 19, 3-[3-Bromo-4-(1-isopropylpiperidin-4-yloxy)phenyl]-1-(morpholin-4-yl)prop-2-ene-1-one]
Ki [1]: 17 nM

Structure (SMILES): COc1cc(C=CC(=O)N2CCOCC2)ccc1OC1CCN(C2CCC2)CC1 [Example 11, 3-[4-(1-Cyclobutylpiperidin-4-yloxy)-3-methoxyphenyl]-1-(morpholin-4-yl)prop-2-ene-1-one L(+)-Tartarate salt]
Ki [1]: 77.2 nM

Structure (SMILES): CC(C)CN1CCC(Oc2ccc(C=CC(=O)N3CCOCC3)cc2)CC1 [Example 18, 3-[4-(1-Isobutylpiperidin-4-yloxy)phenyl]-1-(morpholin-4-yl)prop-2-ene-1-one]
Ki [1]: 32.4 nM

Structure (SMILES): O=C(C=Cc1ccc(OC2CCN(C3CCC3)CC2)nc1)N1CCCCC1 [Example 4, 3-[2-(1-Cyclobutylpiperidin-4-yloxy)pyridin-5-yl]-1-(piperidin-1-yl)prop-2-ene-1-one L(+)-Tartarate salt]
Ki [1]: 7.82 nM

Structure (SMILES): O=C(C=Cc1ccc(OC2CCN(C3CCC3)CC2)cc1)N1CCOCC1.O=C(O)/C=C/C(=O)O [Example 1, 3-[4-(1-Cyclobutylpiperidin-4-yloxy)phenyl]-1-(morpholin-4-yl)prop-2-ene-1-one fumarate salt]
Ki ([1]; fumarate salt): 1.32 nM | Inference ([4]; 1 mg/kg): Active | Exploration time mean ± S.E.M, Familiar object ([4]; 1 mg/kg): 5.96 ± 1.03 s | Exploration time mean ± S.E.M, Novel object ([4]; 1 mg/kg): 14.86 ± 1.92 s | Brain Penetration @ 1 h post dose (Cbrain/Cblood) [2]: 1.40 | AUC(0-t) ([3]; 1 mg/kg, Intravenous): 208 ± 7 ng·h/mL | Cmax ([3]; 1 mg/kg, Intravenous): 214 ± 25 ng/mL | Tmax ([3]; 1 mg/kg, Intravenous): 4.8 min | half-life ([3]; 1 mg/kg, Intravenous): 63 ± 4.2 min | bioavailability [3]: 29 ± 2% | AUC(0-t) ([3]; 3 mg/kg, Per-Oral): 176 ± 10 ng·h/mL | Cmax ([3]; 3 mg/kg, Per-Oral): 106 ± 5 ng/mL | Tmax ([3]; 3 mg/kg, Per-Oral): 30 min | half-life ([3]; 3 mg/kg, Per-Oral): 93.6 ± 25.8 min

Structure (SMILES): O=C(C=Cc1ccc(OC2CCN(C3CCC3)CC2)cc1)N1CCS(=O)(=O)CC1 [Example 3, 3-[4-(1-Cyclobutylpiperidin-4-yloxy)phenyl]-1-(1,1-dioxothiomorpholin-4-yl)prop-2-ene-1-one hydrochloride salt]
Ki [1]: 1.4 nM

Structure (SMILES): O=C(C=Cc1ccc(OC2CCN(C3CCC3)CC2)cc1Cl)N1CCOCC1 [Example 25, 3-[2-Chloro-4-(1-cyclobutylpiperidin-4-yloxy)phenyl]-1-(morpholin-4-yl)prop-2-ene-1-one]
Ki [1]: 29.7 nM

Structure (SMILES): Cc1cc(OC2CCN(C(C)C)CC2)ccc1C=CC(=O)N1CCOCC1 [Example 9, 3-[4-(1-Isopropylpiperidin-4-yloxy)-2-methylphenyl]-1-(morpholin-4-yl)prop-2-ene-1-one L(+)-Tartarate salt]
Ki [1]: 13.1 nM

Further molecules by falling Ki [1], results first:

Ki [1]: 52.6 nM
Structure (SMILES): O=C(C=Cc1ccc(OC2CCN(CC3CC3)CC2)c(Br)c1)N1CCOCC1 [Example 22, 3-[3-Bromo-4-(1-cyclopropylmethylpiperidin-4-yloxy)phenyl]-1-(morpholin-4-yl)prop-2-ene-1-one]

Ki [1]: 7.9 nM | Kp at 1 h [2]: 0.92 | AUC(0-t) ([3]; 1 mg/kg, Intravenous): 173 ± 13 ng·h/mL | Cmax ([3]; 1 mg/kg, Intravenous): 220 ± 10 ng/mL | Tmax ([3]; 1 mg/kg, Intravenous): 4.8 min | half-life ([3]; 1 mg/kg, Intravenous): 36 ± 12 min | bioavailability [3]: 35 ± 5% | AUC(0-t) ([3]; 3 mg/kg, Per-Oral): 184 ± 25 ng·h/mL | Cmax ([3]; 3 mg/kg, Per-Oral): 128 ± 6 ng/mL | Tmax ([3]; 3 mg/kg, Per-Oral): 25.2 ± 8.4 min | half-life ([3]; 3 mg/kg, Per-Oral): 66 ± 18 min
Structure (SMILES): O=C(C=Cc1ccc(OC2CCN(C3CCC3)CC2)nc1)N1CCOCC1.O=C(O)C(O)C(O)C(=O)O [Example 5, 3-[2-(1-Cyclobutylpiperidin-4-yloxy)pyridin-5-yl]-1-(morpholin-4-yl)prop-2-ene-1-one L(+)-Tartarate salt]
Inference ([4]; 3 mg/kg): Active | Exploration time mean ± S.E.M, Familiar object ([4]; 3 mg/kg): 9.64 ± 2.22 s | Exploration time mean ± S.E.M, Novel object ([4]; 3 mg/kg): 15.53 ± 2.36 s

Ki [1]: 6.34 nM
Structure (SMILES): Cc1cc(OC2CCN(C3CCC3)CC2)ccc1C=CC(=O)N1CCOCC1 [Example 8, 3-[4-(1-Cyclobutylpiperidin-4-yloxy)-2-methylphenyl]-1-(morpholin-4-yl)prop-2-ene-1-one L(+)-Tartarate salt]

Ki [1]: 5.97 nM
Structure (SMILES): O=C(C=Cc1ccc(OC2CCN(C3CCC3)CC2)c(Br)c1)N1CCOCC1 [Example 20, 3-[3-Bromo-4-(1-cyclobutylpiperidin-4-yloxy)phenyl]-1-(morpholin-4-yl)prop-2-ene-1-one]

Ki [1]: 3.43 nM | Kp at 1 h [2]: 1.36 | AUC(0-t) ([3]; 1 mg/kg, Intravenous): 222 ± 33 ng·h/mL | Cmax ([3]; 1 mg/kg, Intravenous): 285 ± 46 ng/mL | Tmax ([3]; 1 mg/kg, Intravenous): 4.8 min | half-life ([3]; 1 mg/kg, Intravenous): 48 ± 3 min | bioavailability [3]: 58 ± 6% | AUC(0-t) ([3]; 3 mg/kg, Per-Oral): 387 ± 38 ng·h/mL | Cmax ([3]; 3 mg/kg, Per-Oral): 290 ± 32 ng/mL | Tmax ([3]; 3 mg/kg, Per-Oral): 15 min | half-life ([3]; 3 mg/kg, Per-Oral): 51 ± 8.4 min
Structure (SMILES): O=C(C=Cc1ccc(OC2CCN(C3CCC3)CC2)cc1)N1CCOCC1.O=C(O)C(O)C(O)C(=O)O [Example 10, 3-[4-(1-Cyclobutylpiperidin-4-yloxy)phenyl]-1-(morpholin-4-yl)prop-2-ene-1-one L(+)-Tartarate salt]

Ki [1]: 2.96 nM | Kp at 1 h [2]: 2.51 | AUC(0-t) ([3]; 1 mg/kg, Intravenous): 167 ± 47 ng·h/mL | Cmax ([3]; 1 mg/kg, Intravenous): 311 ± 110 ng/mL | Tmax ([3]; 1 mg/kg, Intravenous): 4.8 min | half-life ([3]; 1 mg/kg, Intravenous): 36 ± 12 min | bioavailability [3]: 9 ± 5% | AUC(0-t) ([3]; 3 mg/kg, Per-Oral): 49 ± 29 ng·h/mL | Cmax ([3]; 3 mg/kg, Per-Oral): 57 ± 36 ng/mL | Tmax ([3]; 3 mg/kg, Per-Oral): 15 min | half-life ([3]; 3 mg/kg, Per-Oral): 54 ± 36 min
Structure (SMILES): O=C(C=Cc1ccc(OC2CCN(C3CCC3)CC2)cc1F)N1CCOCC1.O=C(O)C(O)C(O)C(=O)O [Example 7, 3-[2-Fluoro-4-(1-cyclobutylpiperidin-4-yloxy)phenyl]-1-(morpholin-4-yl)prop-2-ene-1-one L(+)-Tartarate salt]
